Source: PMC9585577, “Oxyresveratrol and Gnetol Glucuronide Metabolites: Chemical Production, Structural Identification, Metabolism by Human and Rat Liver Fractions, and In Vitro Anti-inflammatory Properties” (Journal of Agricultural and Food Chemistry, 2022)

Experiments:
[1] = tested on: TNF-α production in LPS-stimulated RAW 264.7 cells; assay: TNF-α production (ELISA) in LPS-stimulated macrophages; type: cell-based, murine; conditions: t-GN 10 and 50 μM, its glucuronides 50 and 200 μM, 24 h
Protocol: (§1) RAW 264.7 cells were cultured in DMEM containing 10% FBS and maintained in a humidified incubator set at 37 °C with 5% CO2. For all following assays, cells were subcultured at a density of 40 000 cells per well in 96 well culture plates with 200 μL of the above-described culture medium. After 24 h, cells were incubated with ORV, GN, and their glucuronide metabolites (5–200 μM) in RPMI medium supplemented with glutamine (4 mM) in the presence or absence of LPS (0.1 μg/mL) (200 μL final volume per well). For MTT, NO, ROS, IL-1β, and TNF-α (n = 4), each experiment was performed in triplicate separately.
(§2) At 24 h after seeding, RAW 264.7 cells were exposed to LPS (0.1 μg/mL) in the absence or presence of ORV, GN (10 and 50 μM), and their metabolites (50 and 200 μM). After 24 h of exposure, IL-1β and TNF-α concentrations were measured in culture media supernatants by ELISA sandwich assay following the instructions of the manufacturer.

[2] = tested on: ROS production in LPS-stimulated RAW 264.7 cells; assay: Intracellular ROS measurement (DCFH2-DA) in LPS-stimulated macrophages; type: cell-based, murine
Protocol: as §1
Generation of intracellular ROS in cells was analyzed using the fluorometric probe DCFH2-DA. After 24 h of treatment with GN, ORV, and their glucuronide metabolites, cells were washed with phosphate-buffered saline (PBS) and then 150 μL of DCFH2-DA (10 μM) was added. After 30 min at 37 °C, the fluorescence intensity was quantified using a microplate reader (FLUOstar Optima, BMG Labtech) with a wavelength of excitation and emission of 485 and 520 nm, respectively. All experiments were performed in darkness. Results were expressed as ROS production (fluorescence intensity expressed as arbitrary units) compared to cells treated only with LPS (positive control).

[3] = set-up: method as in PMID 25939395; conditions: rats, intravenous and oral administration ref 2; cited from earlier work
[4] = tested on: IL-1β production in LPS-stimulated RAW 264.7 cells; assay: IL-1β production (ELISA) in LPS-stimulated macrophages; type: cell-based, murine; conditions: t-GN 10 and 50 μM, its glucuronides 50 and 200 μM, 24 h
Protocol: as §1, §2

[5] = tested on: NO production in LPS-stimulated RAW 264.7 cells; assay: NO measurement (Griess) in LPS-stimulated macrophages; type: cell-based, murine; conditions: between 25 and 50 μM (summary statement)
Protocol: as §1
After 24 h of treatment of RAW 264.7 cells with ORV, GN, and their glucuronide metabolites, 70 μL of supernatant was mixed with 70 μL of Griess solution. After 15 min in darkness, the absorbance was measured at 550 nm using a microplate reader (FLUOstar Optima, BMG Labtech). A calibration curve of NO2 (0–100 μM) was used for quantification. Data were expressed as NO production (μM) compared to cells treated only with LPS (positive control).

BV-2 microglial cells = tested on: BV-2 microglial cells; set-up: method as in PMID 23807809; conditions: 5 and 10 μM, BV-2 microglial cells ref 36; cited from earlier work
RAW 264.7 cells = assay: MTT cell viability; type: cell-based, murine; conditions: 24 h, 5–200 μM tested
Protocol: as §1
The MTT colorimetric assay was performed to assess the cell viability of cells after being treated with ORV, GN, and their glucuronide metabolites. After 24 h of treatment, RAW 264.7 cells were incubated with 0.5 mg/mL MTT during 3 h at 37 °C. The formazan crystals formed were dissolved with 100 μL of dimethyl sulfoxide (DMSO), and the plate was then incubated in the darkness for 30 min. Finally, the absorbance was measured at 595 nm using a microplate reader (FLUOstar Optima, BMG Labtech).

For `Oc1cc(O)cc(/C=C/c2c(O)cccc2O)c1` [t-GN, trans-2′,3,5,6′-tetrahydroxystilbene], the “reduction of TNF-α” value [1] was “ineffective”, the “counteracting ROS production” value ([2]; GN, concentration not stated (5–50 μM tested), 24 h, LPS) was “more than 55%” and the “decrease of ROS production” value ([2]; between 25 and 50 μM (summary statement)) was “more than 50%”. For the same compound, the calculated bioavailability [3] was 6.6%, the “reduction of IL-1β” value [4] was “ineffective” and the “decrease of NO production” value [5] was “more than 50%”. For the same compound, the cytotoxic effect (BV-2 microglial cells) was “no cytotoxic effect” and the “concentration from which toxic (MTT)” value (RAW 264.7 cells) was no less than 100 µM.
